Literature values as cited in patent US10654880B2, “Methods for preparation of glycosphingolipids and uses thereof” (priority 2011, dated 2020).

Tested on: breast cancer tumors (4T1 cell line)
Details: breast cancer-bearing mice (4T1), relative to untreated group

In the case of `CCCCCCCCCCCCCCCCCCCCCCCCCC(=O)N[C@@H](CO[C@H]1O[C@H](CO)[C@H](O)[C@H](O)[C@H]1O)[C@H](O)[C@H](O)CCCCCCCCCCCCCC` [α-GalCer, alpha-galactosylceramide], the “inhibition of tumor growth rate” value is given as 50%.
